Patent US9629848B2, “Compounds that modulate autoimmunity and methods of using the same” (The Regents of the University of Colorado, a body corporate, priority 2011, dated 2017)
Like-named read-outs stand apart in the source and are kept apart here. Non-standard residues stand in square brackets, D forms with d. Residues, ends and D or L forms follow the SMILES beside them. ξ: configuration not given here. ξY = NC(Cc1ccc(O)cc1)C(=O)O; Nva = CCC[CH](N)C(=O)O

Columns and labels:
DQ8 = DQ8 (Homo sapiens, UniProt P01909+P01920, A209T/A45G/C70Q/D89A/DUP78-78/E183D/E77G/F237L/G63E/H199R/I129T/K197E/L178F/L74F/L98V/Q57E/Q76R/S185I/S97I/T217I/T49S/V73L/Y58L); test: Competitive binding assay B:9-23 to DQ8
[1] = system: BDC 8-1.1α1 anti-B:9-23 T cell hybridoma; test: T cell stimulation assay, B:9-23 activated TCR 8-1.1α1; assay type: cell-based; conditions: Mus musculus, read-out: IC50 for anti-B:9-23 TCRs 8-1.1α1
[2] = system: BDC 12-4.1 anti-B:9-23 T cell hybridoma; test: T cell stimulation assay, B:9-23 activated TCR BDC 12-4.1; assay type: cell-based; conditions: Mus musculus, read-out: IC50 for anti-B:9-23 TCRs BDC 12-4.1
BDC 2.5 T cell hybridoma = test: Chromogranin peptide mimotope presentation by I-A^g^7 to BDC 2.5 T cell hybridoma; assay type: cell-based, mouse; conditions: specificity test
[3] = system: human T cell receptor recognizing insulin B:9-23 presented by human DQ8; test: Inhibition of human T cell receptor recognizing insulin B:9-23 presented by human DQ8; assay type: cell-based; conditions: for Inhibition of human T cell receptor recognition of insulin B:9-23 presented by human DQ8: screen of DQ8 pocket 1 and pocket 9 compounds; for Concentration at which inhibition is exhibited: DQ8 pocket 1 and pocket 9 compounds studied in detail
Text: Using a TCR sequence obtained from a T cell line generated from the peripheral blood of a diabetic individual with DQ8 molecule, a TCR was identified that is DQ8 restricted and responds to the insulin B:9-23 peptide.
Molecules predicted to occupy pockets 1 and 9 of the human DQ8 peptide binding groove were identified using in silico molecular docking program. The top scoring compounds for each pocket were screened for their ability to inhibit anti-B:9-23 T cell responses. FIGS. 9A and 9B represent the results of the T cell stimulation assay for compounds occupying pocket 1 and pocket 9 of the human DQ8 peptide binding groove, respectively.

[4] = system: CD3-stimulated T cell hybridomas; test: CD3-stimulated T cell hybridomas (specificity control); assay type: cell-based
Text: The small molecules p1:4, p1:12 and p1:16 were studied in additional detail.

[5] = system: 5KC cells transduced with a 4-8 TCR; test: Endogenous insulin presentation: whole insulin with I-A^g^7 splenocytes and 4-8 TCR transduced 5KC cells; assay type: cell-based, mouse; conditions: whole insulin with I-A^g^7 containing splenocytes
Method: The ability of the small molecules to block endogenous insulin presentation was tested. Incubation of whole insulin with I-A^g^7 containing splenocytes activates 5KC cells (T cell hybridoma lacking endogenous TCRα and β chains) transduced with a 4-8 TCR. […] To document direct effects of these small molecules on inhibiting peptide binding to I-A^g^7, an I-A^g^7 protein construct was expressed in baculovirus with a linked peptide. The flexible linker contained a thrombin cleavage site, allowing for thrombin cleavage of the linker and release of the peptide.

[6] = >100 uM means some effect at 100 uM but not 50% inhibition, < means lower concentrations not used

Molecule	Competitive Binding Assay B:9-23 to DQ8 (IC50) (DQ8; [6])	IC50 (DQ8)	further results
[H]/N=C(\N)NCCC(N)C(=O)O (stereo not shown) [p4:18]	No inhibition	–	–
C[N+]1(C/C=C/CCl)CN2CNCN(C2)C1 (stereo not shown) [p6:8]	No inhibition	–	–
CCCCN(C)C12CN3CN(CN(C3)C1)C2 [p4:35]	–	> 100 µM	–
O=S1(=O)N2CN3CCN(C2)N1C3	–	–	IC50 [1]: 28.4 µM; IC50 [2]: 0.5 µM
Oc1ncnc2[nH]c(C(O)c3ccccc3)nc12 (stereo not shown) [p4:22]	–	> 100 µM	–
NC(Cn1ccc(=O)c(O)c1)C(=O)O (stereo not shown) [p4:14]	No inhibition	–	–
NCC(=O)NC(Cc1ccc(O)cc1)C(=O)O (stereo not shown) [p6:24] (H-Gly-[ξY]-OH)	–	> 100 µM	–
C1CN2CN1CN1CCN(C1)C2	–	–	IC50 ([1]; B:9-23 activated TCR): 48.8 µM; IC50 ([2]; B:9-23 activated TCR): 2.8 µM
[H]/N=C(\NCCS(C)(=O)=O)NN(O)O [p4:26]	No inhibition	–	–
c1cc[n+](CC[n+]2ccccc2)cc1 [p4:13]	No inhibition	–	–
O=C1CN(C2CCCCC2N2CC(=O)NC(=O)C2)CC(=O)N1 (stereo not shown) [p6:31]	No inhibition	–	–
[H]/N=C(/Nc1ccc(Cl)cc1)NN(O)O [p4:12]	–	> 100 µM	–
[H]/N=C(\NCCOC(C)=O)NN(O)O [p4:8]	No inhibition	–	–
[H]/N=C(\NCCN(C)C)NN(O)O [p4:7]	–	< 100 µM	–
CC1(CO)COC(=O)C(C)(C2(C)NC(C)(CO)COC2=O)N1 (stereo not shown) [p6:28]	No inhibition	–	–
C[N+]1(C/C=C/Cl)CN2CNCN(C2)C1 (stereo not shown) [p6:2]	No inhibition	–	–
[H]/N=C(\NCCCCl)NN(O)O [p4:19]	–	> 100 µM	–
O=[PH](O)C(O)c1ccccc1 (stereo not shown) [p6:17]	–	> 100 µM	Inhibition of chromogranin presentation to the BDC 2.5 hybridoma (BDC 2.5 T cell hybridoma): no inhibition
5-((2,5-dichloro-4-(hydroxy(oxido)amino)phenyl)diazenyl)-2-imino-4-methyl-2,3-dihydro-1,3-thiazole [p1:21]	–	–	Inhibition of human T cell receptor recognition of insulin B:9-23 presented by human DQ8 [3]: able to inhibit
NC(=O)N/N=C/C1CNCCN1 (stereo not shown) [p4:9]	No inhibition	–	–
CCCC(N)C(=O)NC(C(=O)O)C(C)C (stereo not shown) [p4:20] (H-[Nva]-Val-OH; configuration not given here)	–	> 100 µM	–

Molecule	Competitive Binding Assay B:9-23 to DQ8 (IC50) (DQ8; [6])	IC50 (DQ8)	further results
NC(=O)N/N=C/Cn1cc([N+](=O)[O-])c(=O)[nH]c1=O [p4:23]	–	> 100 µM	–
CN(Cc1ccccc1)Cn1ccnc1 [p4:6]	No inhibition	–	–
[H]/N=C(\NCCC#N)NN(O)O [p4:24]	No inhibition	–	–
C1CCCNCCNCCNCC1 [p6:27]	No inhibition	–	–
O=C(O)COC1C=CC(=O)N(CC(=O)O)N1 (stereo not shown) [p9:5, 3-(carboxymethoxy)-6-oxo-3,6-dihydro-1(2H)-pyridazinyl acetic acid]	–	–	Concentration at which inhibition is exhibited [3]: nanomolar; Inhibition of human T cell receptor recognition of insulin B:9-23 presented by human DQ8 [3]: able to inhibit
[H]/N=C(\N/C(N)=N/[H])Nc1ccc([N+](=O)[O-])cc1 [p4:2]	No inhibition	–	–
[H]/N=C(/NCc1ccccc1)NN(O)O [p4:28]	–	> 100 µM	–
O=C(O)C(S)CC(S)C(=O)O (stereo not shown) [p9:17, 3-deoxy-2,4-dithiopentaric acid]	–	–	Inhibition of human T cell receptor recognition of insulin B:9-23 presented by human DQ8 [3]: able to inhibit
COC(=O)COc1ccc(Cl)cc1C(=O)O [p1:18, 5-chloro-2-(2-methoxy-2-oxoethoxy) benzoic acid]	–	–	Inhibition of human T cell receptor recognition of insulin B:9-23 presented by human DQ8 [3]: able to inhibit
COC(=O)C(C=C(Cl)Cl)N1CCNCC1 (stereo not shown) [p6:23]	–	> 100 µM	–
c1ccc(CCN2CCCCCCCC2)nc1 [p4:21]	No inhibition	–	–
Clc1ccc(Cl)c(OCC2=NCCN2)c1 [p4:15]	–	> 100 µM	–
CCC(N)C(O)c1ccccc1 (stereo not shown) [p4:30]	–	–	Competitive Binding Assay B:9-23 to DQ8 (IC50) (DQ8): No inhibition
NC(=O)c1cc(Br)cc(C2CCCCC2)c1O [p1:12, 5-bromo-3-cyclohexyl-2-hydroxybenzamide]	–	–	Response of CD3-stimulated T cell hybridomas [4]: did not change response; Concentration at which inhibition is exhibited [3]: nanomolar; Inhibition of human T cell receptor recognition of insulin B:9-23 presented by human DQ8 [3]: able to inhibit
CC1C(c2ccccc2)OCN1C (stereo not shown) [p4:32]	–	< 100 µM	–
NCc1c(Cl)c(Cl)c(Cl)c(CN)c1Cl [p6:19]	–	> 100 µM	–
O=S(=O)(O)C(O)CC(O)S(=O)(=O)O (stereo not shown) [p9:10, 1,3-dihydroxy-1,3-propanedisulfonic acid]	–	–	Inhibition of human T cell receptor recognition of insulin B:9-23 presented by human DQ8 [3]: able to inhibit
C=CC(OC(=O)CC)(c1ccccc1)C1CCNCC1 (stereo not shown) [p6:32]	–	–	Competitive Binding Assay B:9-23 to DQ8 (IC50) (DQ8): No inhibition
COc1ccc2c(n1)Sc1c(N)nc(N)nc1N2 [p1:22, 7-methoxy-10H-pyrido[2,3-b]pyrimido[4,5-e][1,4]thiazine-2,4-diamine]	–	–	Inhibition of human T cell receptor recognition of insulin B:9-23 presented by human DQ8 [3]: able to inhibit
[H]/N=C(\NN(O)O)NS(=O)(=O)c1ccccc1 [p4:17]	–	> 100 µM	–
Nc1nc(N)c2nn[nH]c2n1	–	–	IC50 ([1]; B:9-23 activated TCR): 25.5 µM; IC50 ([2]; B:9-23 activated TCR): 24 µM

Molecule	Competitive Binding Assay B:9-23 to DQ8 (IC50) (DQ8; [6])	IC50 (DQ8)	further results
NC(CCCC(N)C(=O)O)C(=O)O (stereo not shown) [p4:34]	–	> 100 µM	–
CN1C(=O)C(N)C(N)N(C)C1=O (stereo not shown) [p6:16]	No inhibition	–	–
[H]/N=C(/N/N=C/c1ccncc1)NN(O)O [p4:4]	–	–	Competitive Binding Assay B:9-23 to DQ8 (IC50) (DQ8): No inhibition
O=C(O)COc1ccc(I)cc1I [p1:16, (2,4-diiodophenoxy)acetic acid]	–	–	Response of CD3-stimulated T cell hybridomas [4]: did not change response; Concentration at which inhibition is exhibited [3]: nanomolar; Inhibition of human T cell receptor recognition of insulin B:9-23 presented by human DQ8 [3]: able to inhibit
[H]/N=C(\NCCOC)NN(O)O [p4:31]	–	> 100 µM	–
CN(C)C(Cl)(N(C)C)C(Cl)(N(C)C)N(C)C [p6:18]	–	> 100 µM	IC50 for blocking T cell stimulation from endogenously processed insulin [5]: low nanomolar
N=C(N)c1ccc(/C=C/c2ccc(C(=N)N)cc2)cc1 [p6:33]	No inhibition	–	–
NC1(N)Sc2nc3ccccc3nc2S1	–	–	IC50 ([1]; B:9-23 activated TCR): 70.4 µM; IC50 ([2]; B:9-23 activated TCR): 14.8 µM
O=Nc1c(S(=O)(=O)O)cc2cc(S(=O)(=O)O)cc(O)c2c1O [p1:4, 4,5-dihydroxy-3-nitroso-2,7-naphthalenedisulfonic acid]	–	–	Response of CD3-stimulated T cell hybridomas [4]: did not change response; Concentration at which inhibition is exhibited [3]: nanomolar; Inhibition of human T cell receptor recognition of insulin B:9-23 presented by human DQ8 [3]: able to inhibit
[H]/N=C(\NCC[N+](C)(C)C)NN([O-])O [p4:3]	No inhibition	–	–
O=S(=O)(O)CCc1nnn[nH]1 [p9:23, 2-(1H-tetraazol-5-yl)ethanesulfonic acid]	–	–	Concentration at which inhibition is exhibited [3]: nanomolar; Inhibition of human T cell receptor recognition of insulin B:9-23 presented by human DQ8 [3]: able to inhibit
CC(=O)N1C(=O)C2(NCCCN2)c2ccccc21 [p6:34]	–	< 100 µM	–
CC=C1C(C(=O)O)C1C(=O)O (stereo not shown) [p9:35, 3-ethylidene-1,2-cyclopropanedicarboxylic acid]	–	–	Inhibition of human T cell receptor recognition of insulin B:9-23 presented by human DQ8 [3]: able to inhibit
O=P(O)(O)CCCP(=O)(O)O [p9:1, 3-phosphonopropylphosphonic acid]	–	–	Inhibition of human T cell receptor recognition of insulin B:9-23 presented by human DQ8 [3]: able to inhibit
CC1CNC2C(=O)NC(=O)NC2N1 (stereo not shown) [p4:5]	–	> 100 µM	–
OC1CN(Cc2ccccc2)CC1O (stereo not shown) [p4:33]	No inhibition	–	–
NC1(COS(=O)(=O)O)CCN1 (stereo not shown) [p6:30]	No inhibition	–	–
N=C(N)NC(=N)Nc1ccccc1Cl [p4:1]	–	> 100 µM	–
Nc1nc(O)c2nc(S)c(C(=O)O)nc2n1 [p1:25, 2-amino-4-hydroxy-6-mercapto-7-pteridine carboxylic acid]	–	–	Inhibition of human T cell receptor recognition of insulin B:9-23 presented by human DQ8 [3]: able to inhibit
NC1CC2NC3CCCCC3NC2CC1N (stereo not shown) [p6:7]	No inhibition	–	–
